# Patent US20230099344A1, “COMPOUNDS AND METHODS FOR THE TARGETED DEGRADATION OF IRAK-4” (Arvinas Operations, Inc., priority 2021, published 2023)
# What was measured:
# IL8 = assay: IL-1β stimulated IL8 inhibition assay in PBMC; assay type: cell-based; conditions: human PBMCs, IL-1β stimulation, compound overnight, IL8 by MSD after 24 hrs; for IC50: read-out: IL1β stim IL8 inhibition IC50; for Emax: read-out: IL1β stim IL8 inhibition Ymax
# In short: (§1)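 Primary human PBMCs plated at 2.0×10^6 cells/mL are incubated with compound overnight. Stimulation follows using the donor's EC50 concentration of agonist. MSD detects secreted IL6/IL8 at 24 hrs.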
# IL6 [1] = assay: R848 stimulated IL6 inhibition assay in PBMC; assay type: cell-based; conditions: PBMC, human PBMCs, R848 stimulation, compound overnight, IL6 by MSD after 24 hrs; for Dmax: Homo sapiens, 24 h, read-out: R848 stim IL6 inhibition Dmax; for IC50: read-out: R848 stim IL6 inhibition IC50
# In short: as §1
# IL6 [2] = assay: IL-1β stimulated IL6 inhibition assay in PBMC; assay type: cell-based; conditions: PBMC, human PBMCs, IL-1β stimulation, compound overnight, IL6 by MSD after 24 hrs; for IC50: Homo sapiens, 24 h, read-out: IL1β stim IL6 inhibition IC50; for Emax: read-out: IL1β stim IL6 inhibition Ymax
# In short: as §1
# IL6 [3] = assay: LPS stimulated IL6 inhibition assay in PBMC; assay type: cell-based; conditions: Homo sapiens, PBMC, 24 h, human PBMCs, LPS stimulation, compound overnight, IL6 by MSD after 24 hrs; for Dmax: read-out: LPS Stim IL6 inhibition Dmax; for IC50: read-out: LPS stim IL6 inhibition IC50
# In short: as §1
# IRAK-4 [4] = target: T1, IRAK-4 (Homo sapiens, UniProt Q9NWZ3); assay: IRAK-4 ELISA, PBMC degradation; assay type: cell-based; parameters: endogenous in cells; host or cells: PBMC; conditions: treated overnight
# T1 sequence (Q9NWZ3 1-460): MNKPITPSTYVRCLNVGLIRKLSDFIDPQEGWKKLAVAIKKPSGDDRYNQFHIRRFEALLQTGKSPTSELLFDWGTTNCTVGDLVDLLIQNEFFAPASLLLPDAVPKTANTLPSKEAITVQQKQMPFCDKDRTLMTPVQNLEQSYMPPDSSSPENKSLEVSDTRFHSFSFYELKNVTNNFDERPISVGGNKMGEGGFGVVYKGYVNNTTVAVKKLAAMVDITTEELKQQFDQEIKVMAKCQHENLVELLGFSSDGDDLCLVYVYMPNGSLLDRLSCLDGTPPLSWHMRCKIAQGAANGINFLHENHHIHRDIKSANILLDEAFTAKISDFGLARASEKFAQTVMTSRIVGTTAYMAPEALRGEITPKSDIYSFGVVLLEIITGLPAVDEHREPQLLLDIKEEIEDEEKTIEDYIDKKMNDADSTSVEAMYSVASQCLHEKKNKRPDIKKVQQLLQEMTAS
# In short: (§2)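 OCI-Ly10 cells (seeded at 1×10^6/ml) or human PBMC (seeded at 2×10^6/ml) were treated with compound on the day of seeding and incubated overnight. Lysates were then assayed for remaining IRAK-4 protein by sandwich ELISA with a matched antibody pair.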
# IRAK-4 [5] = target: T1, IRAK-4; assay: IRAK-4 ELISA, OCI-Ly10 degradation; assay type: cell-based; parameters: endogenous in cells; conditions: treated overnight; for Dmax: OCI-Ly10, OCI-Ly10 cells; for DC50: OCI-Ly10 cells
# In short: as §2
# IRAK-4 [6] = target: T2, IRAK-4 (Mus musculus, UniProt Q8R4K2); assay: PD study in wild type mice (spleen and lung); assay type: in vivo; conditions: oral 10, 30 or 90 mg/kg, terminated 24 h later, ELISA, vs vehicle, FIGS. 3A and 3B
# T2 construct: plasma, spleen and lung tissue were collected for analysis of compound concentration and IRAK-4 quantification; from tissue; host or cells: spleen and lung of wild type mice
# T2 sequence (Q8R4K2 1-459): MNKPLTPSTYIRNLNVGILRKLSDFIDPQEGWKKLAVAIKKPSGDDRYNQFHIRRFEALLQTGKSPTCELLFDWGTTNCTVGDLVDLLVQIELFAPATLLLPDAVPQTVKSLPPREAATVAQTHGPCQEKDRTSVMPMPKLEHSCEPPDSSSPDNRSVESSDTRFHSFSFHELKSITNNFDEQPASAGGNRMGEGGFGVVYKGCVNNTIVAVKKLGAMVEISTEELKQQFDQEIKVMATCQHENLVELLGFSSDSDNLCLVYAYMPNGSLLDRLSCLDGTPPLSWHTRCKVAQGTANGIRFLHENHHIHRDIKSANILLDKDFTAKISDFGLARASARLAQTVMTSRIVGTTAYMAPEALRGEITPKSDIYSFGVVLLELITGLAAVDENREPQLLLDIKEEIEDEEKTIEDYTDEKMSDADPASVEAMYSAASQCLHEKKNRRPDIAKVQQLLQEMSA
# Protocol: FIGS. 3A and 3B. PD study in wild type mice.
# A PD Study in Wild Type Mice was Performed
# In FIGS. 3A and 3B, mice were randomly assigned to each treatment group. Animals were dosed orally with 10, 30, or 90 mg/kg compound formulated in 10% DMSO, 90% (2% Tween 80 in PEG 400) and terminated 24 h later. At termination, plasma, spleen and lung tissue were collected for analysis of compound concentration and IRAK-4 quantification. Spleen and lung were snap frozen. IRAK-4 content in any tissue is assessed with the same protocol described for tumor lysates.
# IRAK-4 [7] = target: T1, IRAK-4; assay: PD study in C.B.17 SCID mice with OCI-LY1 tumor xenograft; assay type: in vivo; parameters: from tissue; host or cells: OCI-Ly1 tumour xenograft from C.B.17 SCID mice; conditions: OCI-Ly1 tumor lysate, ELISA normalized to total protein; oral 5, 15 or 50 mg/kg, 24 hours post-dose; vs vehicle; FIG. 2
# Protocol: FIG. 2. PD study in C.B.17 SCID mice with OCI-LY1 tumor xenograft.
# PD Study for with in C.B.17 SCID and WT Mice
# Cell culture: OCI-Ly1 tumor cells were maintained as a suspension in IMDM medium supplemented with 20% fetal bovine serum under an atmosphere of 5% C02 in air at 37° C. Cell density was maintained below 1×10^6/mL.
# Animals: Female C.B. 17 SCID mice aged 6-8 weeks weighing between 16-18 g were used and maintained according to IACUC protocols.
# Tumor Inoculation: Each mouse was inoculated with OCI-Ly1 tumor cells (10×106) in 0.1 mL of RPMI with Matrigel. Treatment was initiated when the tumor sizes reached […].
# A PD Study in C.B.17 SCID Mice with OCI-LY1 Tumor Xenograft was Performed
# In FIG. 2, animals were dosed orally after tumors were inoculated and the tumor sizes reached […], with 5, 15, or 50 mg/kg formulated with 10% DMSO, 90% (2% Tween 80 in PEG 400) and sacrificed humanely 24 hours post-dose. Blood was obtained for isolation of plasma for terminal compound exposure. Tumors was removed and divided in 2 portions, one each for terminal compound concentration and for determination of IRAK-4 content. Compound concentrations were determined by LC/MS with calibrated standards. IRAK-4 content in tumor lysate was quantified by ELISA and normalized to total protein concentration per sample. […]
Compound,IC50 (IL8) [nM],IC50 (IL6 [1]) [nM],IC50 (IL6 [2]) [nM],IC50 (IL6 [3]) [nM],DC50 (IRAK-4 [4]) [nM],Dmax (IRAK-4 [4]) [%],PBMC DC90 (IRAK-4 [4]),Dmax (IRAK-4 [5]) [%],DC50 (IRAK-4 [5]) [nM],IRAK-4 concentration in spleen and lung samples (IRAK-4 [6]),IRAK-4 concentration in the tumor samples (IRAK-4 [7]),Dmax (IL6 [1]) [%],Emax (IL6 [2]) [%],Dmax (IL6 [3]) [%],Emax (IL8) [%]
"O=C1CCC(N2C(=O)c3ccc(N4CC(F)(CN5CCC(n6cc7cc(NC(=O)c8cnn9cccnc89)c(OCC8CC8)cc7n6)CC5)C4)cc3C2=O)C(=O)N1 (centres unmarked) [Example 161, N-(6-(cyclopropylmethoxy)-2-(1-((1-(2-(2,6-dioxopiperidin-3-yl)-1,3-dioxoisoindolin-5-yl)-3-fluoroazetidin-3-yl)methyl)piperidin-4-yl)-2H-indazol-5-yl)pyrazolo[1,5-a]pyrimidine-3-carboxamide]",≥ 100,10 to 50,10 to 50,10 to 50,1 to 5,≥ 90,B (B represents a DC90 value ≥10.0 nM and <25.0 nM),≥ 90,10 to 50,,,≥ 90,80 to 90,70 to 80,
CC(C)Oc1cc2c(cc1NC(=O)c1cnn3cccnc13)CN(C1CCN(C(C)(C)C3CN(c4ccc5c(c4)C(=O)N(C4CCC(=O)NC4=O)C5=O)C3)CC1)C2=O (centres unmarked) [Example 112],,10 to 50,,10 to 50,1 to 5,≥ 90,A (A represents a DC90 value <10.0 nM),,,much lower,lower,≥ 90,,≥ 90,
COc1cc(N2CCC(CN3CCC(N4Cc5cc(NC(=O)c6cnn7cccnc67)c(OC(C)C)cc5C4=O)CC3)CC2)cc2c1C(=O)N(C1CCC(=O)NC1=O)C2 (centres unmarked) [Example 23],10 to 50,10 to 50,< 10,10 to 50,< 1,≥ 90,A (A represents a DC90 value <10.0 nM),80 to 90,< 10,,,≥ 90,≥ 90,70 to 80,80 to 90

# The next lines start with results.
IC50 (IL8) [nM],IC50 (IL6 [1]) [nM],IC50 (IL6 [2]) [nM],IC50 (IL6 [3]) [nM],DC50 (IRAK-4 [4]) [nM],Dmax (IRAK-4 [4]) [%],PBMC DC90 (IRAK-4 [4]),Dmax (IRAK-4 [5]) [%],DC50 (IRAK-4 [5]) [nM],IRAK-4 concentration in spleen and lung samples (IRAK-4 [6]),IRAK-4 concentration in the tumor samples (IRAK-4 [7]),Compound,Dmax (IL6 [1]) [%],Emax (IL6 [2]) [%],Dmax (IL6 [3]) [%],Emax (IL8) [%]
< 10,< 10,< 10,10 to 50,< 1,≥ 90,A (A represents a DC90 value <10.0 nM),≥ 90,< 10,,,"CC(C)Oc1cc2c(cc1NC(=O)c1cnn3cccnc13)CN([C@H]1CC[C@H](N(C)C3CN(c4ccc5c(c4)C(=O)N(C4CCC(=O)NC4=O)C5=O)C3)CC1)C2=O (some centres unmarked) [Example 313, N-(2-((1r,4r)-4-((1-(2-(2,6-dioxopiperidin-3-yl)-1,3-dioxoisoindolin-5-yl)azetidin-3-yl)(methyl)amino)cyclohexyl)-6-isopropoxy-1-oxoisoindolin-5-yl)pyrazolo[1,5-a]pyrimidine-3-carboxamide]",≥ 90,≥ 90,80 to 90,< 70
10 to 50,10 to 50,< 10,< 10,< 1,80 to 90,A (A represents a DC90 value <10.0 nM),≥ 90,< 10,,,O=C1CCC(N2Cc3cc(N4CCC(CN5CCC(N6Cc7cc(NC(=O)c8cnn9cccnc89)c(N8CCC(N9CCC9)CC8)cc7C6=O)CC5)CC4)ccc3C2=O)C(=O)N1 (centres unmarked) [Example 97],≥ 90,≥ 90,≥ 90,≥ 90
10 to 50,< 10,< 10,< 10,< 1,≥ 90,1 nM,≥ 90,< 10,,,"CC(C)Oc1cc2c(cc1NC(=O)c1cnn3cccnc13)CN(C1CCN(CC3CCN(c4ccc5c(c4)C(=O)N(C4CCC(=O)NC4=O)C5=O)CC3)CC1)C2=O (centres unmarked) [Example 1, N-(2-(1-((1-(2-(2,6-dioxopiperidin-3-yl)-1,3-dioxoisoindolin-5-yl)piperidin-4-yl)methyl)piperidin-4-yl)-6-isopropoxy-1-oxoisoindolin-5-yl)pyrazolo[1,5-a]pyrimidine-3-carboxamide]",≥ 90,≥ 90,80 to 90,70 to 80
≥ 100,,10 to 50,,< 1,≥ 90,A (A represents a DC90 value <10.0 nM),≥ 90,< 10,much lower,,O=C1CCC(N2C(=O)c3ccc(N4CCN(CCN5CCC(n6cc7cc(NC(=O)c8cnn9cccnc89)c(OCC8CC8)cc7n6)CC5)CC4)cc3C2=O)C(=O)N1 (centres unmarked) [Example 167],,≥ 90,,80 to 90
